The results in this text go back to patent US20230265524A1, “IMMUNOGENIC RETROELEMENTS AND THEIR USE IN CANCER THERAPY” (UNIVERSITY HEALTH NETWORK, priority 2020, published 2023).

Common to all, as to assay type: cell-based, human
For one assay, the system named is MAVS. In words: MAVS aggregation by SDS-AGE. To be noted: ADAR1-depleted, mitochondrial fraction of cell lysates. The text has this: J, MAVS aggregation analyzed by SDS-AGE and MAVS protein level analyzed by SDS-PAGE. VDAC served as a loading control in SDS-PAGE.
(§1) Based on these findings, we hypothesized that ADAR1 depletion would synergize with the viral mimicry response induced by DNMTi treatment. To assess how ADAR1 depletion affects 5-AZA-CdR treated samples, we performed RNA-seq analyses in patient-derived CRC cells. […] As a molecular read-out of dsRNA pattern recognition activation, we measured MAVS aggregation in the mitochondrial fraction of cell lysates^34. […] Taken together, our findings establish that ADAR1 acts as a negative feedback loop, restricting the viral mimicry response induced by DNMTi treatment in cancer cells.

For assay [1], the system named is interferon stimulated genes (ISG15, DDX58 and IRF7). The assay is described as follows: interferon response / ISG expression by RNA-seq GSEA and qRT-PCR in patient-derived CRC cells.
Description: H, Geneset Enrichment Analysis showing an enrichment of the geneset ‘Hallmark_Interferon_Alpha_Response’ in ADAR1^KD 5-AZA-treated cells compared to ADAR1^WT 5-AZA-CdR treated cells.
I, Interferon-responsive geneset enrichment score in mock-treated ADAR1^WT, 5-AZA-CdR-treated ADAR1^WT, mock-treated ADAR1^KD, and 5-AZA-CdR-treated ADAR1^KD conditions. Samples were collected 5, 14, and 24 days post-treatment.
B, Kinetics of interferon stimulated genes (ISG15, DDX58 and IRF7) relative expression in ADAR1^WT (Black) and ADAR1^KD (Gray) patient-derived colorectal cancer cells (CRCs) treated with 5-AZA-CdR analyzed by qRT-PCR. Data are mean±s.e.m. (n=3 from three independent experiments). *P<0.05, **P<0.01, ****P<0.0001, Sidak-corrected two-way ANOVA.
C, Interferon-responsive gene expression in ADAR1^WT mock-treated (MT), 5-AZA-CdR treated, ADAR1^KD NT and ADAR1^KD p(I:C) transfected samples collected 5 days, 14 days and 24 days post-treatment, measured by RNA-seq.
D, Kinetics of interferon stimulated genes (ISG15, DDX58 and IRF7) relative expression in ADAR1^WT (Black) and ADAR1^KD (Gray) patient-derived CRCs transfected with p(I:C), analyzed by qRT-PCR. Data are mean±s.e.m. **P<0.01, ****P<0.0001, Sidak-corrected two-way ANOVA.
F, Interferon stimulated genes (ISG15, DDX58 and IRF7) relative expression in CTRL (LUC) (Black) and ADAR1^p150CE (Gray) patient-derived CRCs treated with 5-AZA-CdR, analyzed by qRT-PCR. Data are mean±s.e.m. **P<0.01, ***P<0.001, Sidak-corrected two-way ANOVA.
G, IFN enrichment score in CTRL(LUC) Mock-treated, 5-AZA-CdR treated, ADAR1-p150 overexpressing NT and ADAR1-p150 overexpressing 5-AZA-CdR treated samples collected 5 days post-treatment and measured by RNA-seq.
as §1
(Real-time PCR tracks product formation cycle by cycle.)

Assay [2] concerns H3K4me3 and H3K27ac upstream of treatment-induced IR-Alus. The assay is described as follows: genome-wide CUT&RUN of H3K4me3 and H3K27ac at treatment-induced IR-Alus. The conditions noted are these: DNMTi treatment. From the text: D, Heatmaps and average CUT & RUN profiles of H3K4me3 (left) and H3K27ac (right) signal at −50 kb/+50 kb (Upstream/downstream) of the Treatment-induced IR-Alu pairs regions. The orientation was based on the transcriptional orientation in the MDA5-protected RNA-seq data
Active promoters and enhancers are often marked by H3K4me3 and H3K27ac, respectively. […] Importantly, we assessed the DNA methylation status of these specific regulatory regions that became H3K4me3 marked upstream of the induced IR-Alus following epigenetic therapy and found the majority of these regions to be frequently methylated before treatment. We observed that 91% of these regions were either partially or fully methylated in the panel of 51 CRC cell lines (FIG. 6C) and 94% in the panel of 988 pan-cancer cell lines (FIG. 6D). Moreover, we observed that the DNA methylation status of these regulatory regions upstream of induced IR-Alus were inversely correlated (r=−0.23, p=7.58-13) with the expression of a panel of Interferon-Stimulated Genes (n=22 ISGs) from our viral mimicry signature^1 across the 988 pan-cancer cell lines (FIG. 6E).

The test system of assay [3] is HT29 colorectal cancer cell lines. The assay is described as follows: ISG relative expression in HT29 cells. The conditions noted are these: HT29, ADAR1 KD vs WT, 300 nM for 5 days. As to the method:
D) Interferon-stimulated genes (MDA5, ISG15 and DDX58) relative expression in ADAR1^WT and ADAR1^KD HT29 colorectal cancer cell lines treated with 300 nM 5-AZA-CdR for 5 days. Data are mean±s.e.m. (n=3 from three independent experiments). *P<0.05, **P<0.01, ***P<0.001, ****P<0.0001, Tukey-corrected two-way ANOVA.
as §1

For another assay, the system named is ADAR1. The assay is described as follows: genome-wide A-to-I editing loci counts in Alus (RNA-seq). The text has this: G, Genome-wide A-to-I editing loci counts in Alus in the RNA-seq data performed in the total cytoplasmic fraction (‘Total CytoRNA’) and in the MDA5-protected fraction (‘MDA5-protected’) at the mock-treated (MT) ADAR1^WT, 5-AZA-CdR-treated ADAR1^WT, mock-treated ADAR1^KD, and 5-AZA-CdR-treated ADAR1^KD conditions.
Next, we tested whether epigenetic therapy can induce and activate ADAR1 editing activity.

For `Nc1ncn([C@H]2C[C@H](O)[C@@H](CO)O2)c(=O)n1` [5-AZA-CdR], the “MAVS activation (aggregation)” value in the assay with MAVS was “enhanced MAVS activation”. Moreover, the “type I interferon response (GSEA)” value in assay [1] (ADAR1-depleted vs wild-type samples, both treated with 5-AZA-CdR) is on record as “the most enriched pathway”. Also, the “persistence of enhanced interferon/ISG response” value in assay [1] (ADAR1-depleted vs wild-type, after initial treatment) is on record as “persisted as long as twenty-four days after initial treatment”. In assay [1] (CRC cells overexpressing ADAR1p150), the “viral mimicry (expression of ISGs and dsRNA formation)” value is listed as “rescues the ability of 5-AZA-CdR to induce viral mimicry”. Further, the “H3K4me3 and H3K27ac levels directly upstream of treatment-induced immunogenic IR-Alus” value in assay [2] is on record as “elevated levels of H3K4me3, but not H3K27ac”. Also, in assay [3], the “expression of IFN stimulated genes (ISGs)” value is “enhanced upon ADAR1 depletion”. The “A-to-I editing of MDA5-protected Alus” value was “depletion of ADAR1 abrogated this effect” in the assay with ADAR1 (ADAR1-depleted cells) and “genome-wide increased A-to-I editing” in the assay on ADAR1 (ADAR1 WT cells).
